In ChEMBL document CHEMBL1136550, “Discovery of orally bioavailable NK1 receptor antagonists” (Bioorg Med Chem Lett, 2003):
Converted amounts (≈) assume the structure as drawn.

Tests used:
Substance-P receptor [1] = target: T1, Substance-P receptor (Homo sapiens, UniProt P25103); experiment: Displacement of [3H]-substance P from human NK1 receptor expressed in CHO cells, at 10e-5 M; assay type: cell-based
Substance-P receptor [2] = target: T1, Substance-P receptor; experiment: Displacement of [3H]-substance P from human NK1 receptor expressed in CHO cells; assay type: cell-based
[3] = pKa value was evaluated; assay type: physicochemical
Cavia porcellus [4] = experiment: Inhibition of SP-induced pulmonary edema in guinea-pig 30 min after oral administration at a dose of 10 mg/kg; assay type: functional; settings: 0.5 h
[5] = LogD distribution coefficient between octanol and PBS at pH7.4; assay type: physicochemical; settings: pH 7.4, read-out: LogD7.4
Cavia porcellus [6] = experiment: Inhibition of SP-induced pulmonary edema in guinea-pig 120 min after oral administration at a dose of 10 mg/kg; assay type: functional; settings: 2 h
Cavia porcellus [7] = experiment: Inhibition of SP-induced pulmonary edema in guinea-pig 240 min after oral administration at a dose of 10 mg/kg; assay type: functional; settings: 4 h
Cavia porcellus [8] = experiment: Inhibition of SP-induced pulmonary edema in guinea-pig 60 min after oral administration at a dose of 10 mg/kg; assay type: functional; settings: 1 h
Caco-2 = experiment: Caco-2 permeability was measured; assay type: functional, cell-based; settings: Homo sapiens
[9] = Solubility was measured; assay type: physicochemical
Rattus norvegicus = species: Rattus norvegicus; experiment: Inhibition of contraction induced by 100 mM KCl in isolated rat aorta; assay type: functional
Cavia porcellus [10] = experiment: Inhibition of SP-induced pulmonary edema in guinea-pig 30 min after oral administration at a dose of 1 mg/kg; assay type: functional; settings: 0.5 h
Cavia porcellus [11] = experiment: Inhibition of SP-induced pulmonary edema in guinea-pig 60 min after oral administration at a dose of 1 mg/kg; assay type: functional; settings: 1 h
Cavia porcellus [12] = experiment: Inhibition of SP-induced pulmonary edema in guinea-pig 240 min after oral administration at a dose of 1 mg/kg; assay type: functional; settings: 4 h

T1 sequence (P25103 whole entry): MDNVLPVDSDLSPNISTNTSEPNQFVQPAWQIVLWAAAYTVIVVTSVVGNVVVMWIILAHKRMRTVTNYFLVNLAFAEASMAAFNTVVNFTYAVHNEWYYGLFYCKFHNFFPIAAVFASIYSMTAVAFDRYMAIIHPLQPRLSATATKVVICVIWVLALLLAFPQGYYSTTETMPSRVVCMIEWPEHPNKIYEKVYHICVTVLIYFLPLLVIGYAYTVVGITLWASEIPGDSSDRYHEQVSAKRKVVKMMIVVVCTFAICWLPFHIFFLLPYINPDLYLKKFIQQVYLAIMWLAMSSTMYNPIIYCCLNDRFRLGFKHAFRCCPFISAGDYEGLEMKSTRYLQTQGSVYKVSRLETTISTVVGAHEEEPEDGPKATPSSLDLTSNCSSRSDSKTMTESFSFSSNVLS

COc1ccccc1COCC(c1ccccc1)N1CCNCC1 (stereo not drawn)
inhibition (Substance-P receptor [1]): < 20%

CCOC(=O)N1CCN(C(COCc2cc(C(F)(F)F)cc(C(F)(F)F)c2)c2ccccc2)CC1 (stereo not drawn)
Ki (Substance-P receptor [2]): 63.1 nM

Fc1cccc(C(COCc2cc(C(F)(F)F)cc(C(F)(F)F)c2)N2CCNCC2)c1 (stereo not drawn)
Ki (Substance-P receptor [2]): 2 nM

Clc1ccc(COCC(c2ccccc2)N2CCNCC2)cc1Cl (stereo not drawn)
Ki (Substance-P receptor [2]): 100 nM

FC(F)(F)Oc1ccccc1COCC(c1ccccc1)N1CCNCC1 (stereo not drawn)
inhibition (Substance-P receptor [1]): 50%

C[C@@H](OC[C@H](c1ccccc1)N1CCN(CC(=O)O)CC1)c1cc(C(F)(F)F)cc(C(F)(F)F)c1
inhibition (Substance-P receptor [1]): < 20%

COc1c(Br)cc(Br)cc1COCC(c1ccccc1)N1CCNCC1 (stereo not drawn)
Ki (Substance-P receptor [2]): 7.94 nM

O=C(O)CCCCN1CCN(C(COCc2cc(C(F)(F)F)cc(C(F)(F)F)c2)c2ccccc2)CC1 (stereo not drawn)
Ki (Substance-P receptor [2]): 10 nM

CN1CCN(C(COCc2cc(C(F)(F)F)cc(C(F)(F)F)c2)c2ccccc2)CC1 (stereo not drawn)
Ki (Substance-P receptor [2]): 1.58 nM

C[C@H](OC[C@H](c1ccccc1)N1CCN(CC(=O)O)CC1)c1cc(C(F)(F)F)cc(C(F)(F)F)c1
Ki (Substance-P receptor [2]): 1.26 nM

NC(=O)COCCN1CCN(C(COCc2cc(C(F)(F)F)cc(C(F)(F)F)c2)c2ccccc2)CC1 (stereo not drawn)
pKa [3]: 7.4 | Ki (Substance-P receptor [2]): 3.16 nM

Fc1ccccc1C(COCc1cc(C(F)(F)F)cc(C(F)(F)F)c1)N1CCNCC1 (stereo not drawn)
Ki (Substance-P receptor [2]): 5.01 nM

C[C@H](OC[C@@H](c1ccccc1)N1CCN(CC(=O)O)CC1)c1cc(C(F)(F)F)cc(C(F)(F)F)c1
Ki (Substance-P receptor [2]): 3.16 nM

NC(=O)CN1CCN([C@H](COCc2cc(C(F)(F)F)cc(C(F)(F)F)c2)c2ccccc2)CC1
pKa [3]: 6.2 | Ki (Substance-P receptor [2]): 7.94 nM

Fc1ccc(C(COCc2cc(C(F)(F)F)cc(C(F)(F)F)c2)N2CCNCC2)cc1 (stereo not drawn)
Ki (Substance-P receptor [2]): 79.4 nM

Cc1cc(C)cc(COCC(c2ccccc2)N2CCNCC2)c1 (stereo not drawn)
Ki (Substance-P receptor [2]): 25.1 nM

C[C@@H](OC[C@@H](c1ccccc1)N1CCN(CCOCC(=O)O)CC1)c1cc(C(F)(F)F)cc(C(F)(F)F)c1
inhibition (Substance-P receptor [1]): < 20%

O=C(O)CN1CCN(C(COCc2cc(C(F)(F)F)cc(C(F)(F)F)c2)c2ccccc2)CC1 (stereo not drawn)
inhibition in vivo at 10 mg/kg (Cavia porcellus [4]): 84% | logD [5]: 2.35 | inhibition in vivo at 10 mg/kg (Cavia porcellus [6]): 68% | Ki (Substance-P receptor [2]): 15.8 nM | inhibition in vivo at 10 mg/kg (Cavia porcellus [7]): 53% | inhibition in vivo at 10 mg/kg (Cavia porcellus [8]): 76% | Papps (Caco-2): 96 nm/s | solubility [9]: 1.3 mg/mL (≈ 2650 µM) | pD2 (Rattus norvegicus): <4

FC(F)(F)c1cc(COCC(c2ccccc2)N2CCN(Cc3ccccn3)CC2)cc(C(F)(F)F)c1 (stereo not drawn)
Ki (Substance-P receptor [2]): 2 nM

O=C(O)COCCN1CCN(C(COCc2cc(C(F)(F)F)cc(C(F)(F)F)c2)c2ccccc2)CC1 (stereo not drawn)
inhibition in vivo at 10 mg/kg (Cavia porcellus [4]): 53% | logD [5]: 2.17 | inhibition in vivo at 10 mg/kg (Cavia porcellus [6]): 54% | Ki (Substance-P receptor [2]): 15.8 nM | inhibition in vivo at 10 mg/kg (Cavia porcellus [7]): 29% | inhibition in vivo at 10 mg/kg (Cavia porcellus [8]): 61% | Papps (Caco-2): 42 nm/s | solubility [9]: > 2 mg/mL | pD2 (Rattus norvegicus): <4

Clc1cc(Cl)cc(COCC(c2ccccc2)N2CCNCC2)c1 (stereo not drawn)
Ki (Substance-P receptor [2]): 3.16 nM

FC(F)(F)c1cc(COCC(c2ccccc2)N2CCN(CCCCc3nn[nH]n3)CC2)cc(C(F)(F)F)c1 (stereo not drawn)
logD [5]: 2.71 | Ki (Substance-P receptor [2]): 6.31 nM | solubility [9]: 0.2 mg/mL (≈ 359 µM)

Fc1cc(F)cc(COCC(c2ccccc2)N2CCNCC2)c1 (stereo not drawn)
Ki (Substance-P receptor [2]): 200 nM

FC(F)(F)c1cc(COCC(c2cccs2)N2CCNCC2)cc(C(F)(F)F)c1 (stereo not drawn)
Ki (Substance-P receptor [2]): 7.94 nM

Clc1cccc(COCC(c2ccccc2)N2CCNCC2)c1 (stereo not drawn)
Ki (Substance-P receptor [2]): 398 nM

FC(F)(F)c1cc(COCC(c2cccc(Cl)c2)N2CCNCC2)cc(C(F)(F)F)c1 (stereo not drawn)
Ki (Substance-P receptor [2]): 1.58 nM

N#CCN1CCN(C(COCc2cc(C(F)(F)F)cc(C(F)(F)F)c2)c2ccccc2)CC1 (stereo not drawn)
Ki (Substance-P receptor [2]): 7.94 nM

C[C@@H](OC[C@H](c1ccccc1)N1CCN(CCOCC(=O)O)CC1)c1cc(C(F)(F)F)cc(C(F)(F)F)c1
inhibition (Substance-P receptor [1]): < 20%

FC(F)(F)c1cc(COCC(c2ccccc2)N2CCN(CCCCc3nnn[nH]3)CC2)cc(C(F)(F)F)c1 (stereo not drawn)
inhibition in vivo at 10 mg/kg (Cavia porcellus [4]): 65% | inhibition in vivo at 10 mg/kg (Cavia porcellus [6]): 65% | inhibition in vivo at 10 mg/kg (Cavia porcellus [7]): 20% | inhibition in vivo at 10 mg/kg (Cavia porcellus [8]): 99% | Papps (Caco-2): 26 nm/s | pD2 (Rattus norvegicus): <4

NC(=O)N1CCN(C(COCc2cc(C(F)(F)F)cc(C(F)(F)F)c2)c2ccccc2)CC1 (stereo not drawn)
inhibition in vivo at 10 mg/kg (Cavia porcellus [4]): 15% | inhibition in vivo at 10 mg/kg (Cavia porcellus [6]): 26% | Ki (Substance-P receptor [2]): 20 nM | inhibition in vivo at 10 mg/kg (Cavia porcellus [8]): 47%

FC(F)(F)c1cc(COCC(c2ccccc2)N2CCN(CCN3CCOCC3)CC2)cc(C(F)(F)F)c1 (stereo not drawn)
Ki (Substance-P receptor [2]): 15.8 nM

FC(F)(F)c1cc(COCC(c2ccccc2Cl)N2CCNCC2)cc(C(F)(F)F)c1 (stereo not drawn)
Ki (Substance-P receptor [2]): 1.58 nM

Fc1cc(COCC(c2ccccc2)N2CCNCC2)cc(C(F)(F)F)c1 (stereo not drawn)
Ki (Substance-P receptor [2]): 12.6 nM

c1ccc(COCC(c2ccccc2)N2CCNCC2)cc1 (stereo not drawn)
inhibition (Substance-P receptor [1]): < 20%

C[C@@H](OC[C@@H](c1ccccc1)N1CCN(CC(=O)O)CC1)c1cc(C(F)(F)F)cc(C(F)(F)F)c1
inhibition (Substance-P receptor [1]): < 20%

FC(F)(F)c1cc(COCC(c2ccc3ccccc3c2)N2CCNCC2)cc(C(F)(F)F)c1 (stereo not drawn)
Ki (Substance-P receptor [2]): 31.6 nM

C[C@H](OC[C@H](c1ccccc1)N1CCN(CCOCC(=O)O)CC1)c1cc(C(F)(F)F)cc(C(F)(F)F)c1
inhibition in vivo at 1 mg/kg (Cavia porcellus [10]): 77% | logD [5]: 2.64 | inhibition in vivo at 1 mg/kg (Cavia porcellus [11]): 75% | Papps (Caco-2): 87 nm/s | solubility [9]: > 2 mg/mL | inhibition in vivo at 1 mg/kg (Cavia porcellus [12]): 70% | pD2 (Rattus norvegicus): <4

FC(F)(F)c1cc(COCC(c2ccc(Cl)c(Cl)c2)N2CCNCC2)cc(C(F)(F)F)c1 (stereo not drawn)
Ki (Substance-P receptor [2]): 6.31 nM

FC(F)(F)c1cc(COCC(c2cccc3ccccc23)N2CCNCC2)cc(C(F)(F)F)c1 (stereo not drawn)
Ki (Substance-P receptor [2]): 1.58 nM

Cc1ccccc1C(COCc1cc(C(F)(F)F)cc(C(F)(F)F)c1)N1CCNCC1 (stereo not drawn)
Ki (Substance-P receptor [2]): 1 nM

Clc1ccccc1COCC(c1ccccc1)N1CCNCC1 (stereo not drawn)
inhibition (Substance-P receptor [1]): 50%

O=C(O)CCCC(=O)N1CCN(C(COCc2cc(C(F)(F)F)cc(C(F)(F)F)c2)c2ccccc2)CC1 (stereo not drawn)
inhibition (Substance-P receptor [1]): < 20%

COc1ccccc1C(COCc1cc(C(F)(F)F)cc(C(F)(F)F)c1)N1CCNCC1 (stereo not drawn)
Ki (Substance-P receptor [2]): 6.31 nM

Cc1cccc(C(COCc2cc(C(F)(F)F)cc(C(F)(F)F)c2)N2CCNCC2)c1 (stereo not drawn)
Ki (Substance-P receptor [2]): 3.16 nM

COC(=O)CN1CCN(C(COCc2cc(C(F)(F)F)cc(C(F)(F)F)c2)c2ccccc2)CC1 (stereo not drawn)
Ki (Substance-P receptor [2]): 39.8 nM

Brc1cc(Br)cc(COCC(c2ccccc2)N2CCNCC2)c1 (stereo not drawn)
Ki (Substance-P receptor [2]): 5.01 nM

COc1cc(COCC(c2ccccc2)N2CCNCC2)cc(OC)c1OC (stereo not drawn)
Ki (Substance-P receptor [2]): 126 nM

FC(F)(F)c1ccc(COCC(c2ccccc2)N2CCNCC2)c(C(F)(F)F)c1 (stereo not drawn)
Ki (Substance-P receptor [2]): 15.8 nM

COc1cccc(C(COCc2cc(C(F)(F)F)cc(C(F)(F)F)c2)N2CCNCC2)c1 (stereo not drawn)
Ki (Substance-P receptor [2]): 1 nM

CCCCN1CCN(C(COCc2cc(C(F)(F)F)cc(C(F)(F)F)c2)c2ccccc2)CC1 (stereo not drawn)
inhibition in vivo at 10 mg/kg (Cavia porcellus [4]): 62% | logD [5]: 4.09 | Ki (Substance-P receptor [2]): 2.51 nM | inhibition in vivo at 10 mg/kg (Cavia porcellus [7]): 58% | Papps (Caco-2): 52 nm/s | solubility [9]: 0.001 mg/mL (≈ 2.05 µM) | pD2 (Rattus norvegicus): 4.6

FC(F)(F)c1cc(COCC(c2ccccc2)N2CCNCC2)cc(C(F)(F)F)c1 (stereo not drawn)
logD [5]: 2.41 | Papps (Caco-2): 21 nm/s | solubility [9]: 0.2 mg/mL (≈ 463 µM) | pD2 (Rattus norvegicus): 5.38

FC(F)(F)c1cc(COCC(c2ccco2)N2CCNCC2)cc(C(F)(F)F)c1 (stereo not drawn)
Ki (Substance-P receptor [2]): 158 nM

NC(=O)CN1CCN([C@@H](COCc2cc(C(F)(F)F)cc(C(F)(F)F)c2)c2ccccc2)CC1
logD [5]: 3.26 | pKa [3]: 6.2 | Ki (Substance-P receptor [2]): 10 nM | Papps (Caco-2): 79 nm/s | solubility [9]: 0.002 mg/mL (≈ 4.09 µM) | pD2 (Rattus norvegicus): 4.27

COc1cc(CN2CCN(C(COCc3cc(C(F)(F)F)cc(C(F)(F)F)c3)c3ccccc3)C(Cc3ccccc3)C2)cc(OC)c1OC (stereo not drawn)
logD [5]: 5.2 | Ki (Substance-P receptor [2]): 251 nM | solubility [9]: 0.0006 mg/mL (≈ 0.854 µM)

Fc1cccc(C(COCc2cc(C(F)(F)F)cc(C(F)(F)F)c2)N2CCNCC2)c1F (stereo not drawn)
Ki (Substance-P receptor [2]): 3.16 nM

Oc1n[nH]c(CN2CCN(C(COCc3cc(C(F)(F)F)cc(C(F)(F)F)c3)c3ccccc3)CC2)n1 (stereo not drawn)
Ki (Substance-P receptor [2]): 15.8 nM

FC(F)(F)c1cc(COCC(c2ccccc2)N2CCN(Cc3nn[nH]n3)CC2)cc(C(F)(F)F)c1 (stereo not drawn)
Ki (Substance-P receptor [2]): 63.1 nM

COc1ccc(C(COCc2cc(C(F)(F)F)cc(C(F)(F)F)c2)N2CCNCC2)cc1 (stereo not drawn)
Ki (Substance-P receptor [2]): 50.1 nM
